The values below come from US7910599B2 (priority 2005, dated 2011).

One series deals with Male Wistar rats. As to the kind of experiment: Selective extinction in alcohol-experienced rats: naloxone before alcohol access, saccharin access without injection. It is filed as in vivo, rat. Here is the method:
The example included here is a prior preclinical experiment in which the alternative opioidergically-reinforced behavior was saccharin drinking. Alcohol experienced rats had continual access to food and water. Alcohol solution was available for only an hour a day for 2 to 4 days. On the next day or two, saccharin solution instead was available. Naloxone (or saline for the control group) was injected prior to the alcohol session.
Male Wistar rats (n=26) were individually housed with daily access to 10% ethanol, with food and water always present. After 2 months prior experience, the rats were switched to having 2-4 alcohol-access days interspersed with 1 or 2 days when saccharin solution (1 g/l) was available for 1 hr. […] No injections were made prior to saccharin access.

Series [1] relates to humans. The following applies: acute study; cited from earlier work.
In series [2] the test system is humans. The following applies: highly palatable versus less pleasant tasting foods; cited from earlier work.
In another series the test system is rats. Put plainly: Rats kept continually on antagonist in the food, alcohol drinking. Type of series: in vivo, rat. Conditions: large doses in the food, continual presence; less reduction than selective extinction with naloxone.
For series [3] the following is noted: continual administration; cited from earlier work.
In the next series the test system is alcoholics. Conditions: cited from earlier work.
For series [4], the system named is patients suffering from binge eating. The following applies: 50 mg once, twice or 3 times daily; cited from earlier work.
In series [5] the test system is humans. The following applies: cited from earlier work.
[6] abbreviates: subcutaneous naloxone prior to alcohol access, dose reduced from 10.000 to 0.005 mg/kg.

Structures are written as SMILES. Entries after “also recorded” stand apart in the source; their conditions may differ.

With `C=CCN1CC[C@]23c4c5ccc(O)c4O[C@H]2C(=O)CC[C@@]3(O)[C@H]1C5` [naloxone], in the series on Male Wistar rats (first three weeks), the “saccharin drinking in the same animals” value is on record as “significantly increased”. For the same molecule, the alcohol drinking entry in the series on Male Wistar rats (first three weeks, naloxone doses in the range previously found effective) is given as “practically abolished”. Also, in the series on Male Wistar rats (subcutaneous naloxone prior to alcohol access (10% ethanol), dose progressively reduced from 10.000 to 0.005 mg/kg), the “alcohol drinking in comparison with saline controls and own prior levels” value was “strongly reduced; also recorded: significantly reduced”. For the same molecule, in the series with Male Wistar rats (setting [6]), the “time alcohol drinking continued to be significantly reduced” value is on record as 8 weeks and the “time alcohol drinking was reduced to nearly zero for most rats” value was 6 weeks. In addition, the “size of an eating binge” value with humans [1] was “significantly reduced”.

`C=C1CC[C@@]2(O)[C@H]3Cc4ccc(O)c5c4[C@@]2(CCN3CC2CC2)[C@H]1O5` [nalmefene]: in the series with humans [2], the food intake result was “suppresses intake of highly palatable foods but not that of less pleasant tasting ones”. Further, in the series on rats, the alcohol drinking entry is listed as “significantly lowered”.

`O=C1CC[C@@]2(O)[C@H]3Cc4ccc(O)c5c4[C@@]2(CCN3CC2CC2)[C@H]1O5` [naltrexone]: in series [3], the side-effects result is listed as “liver toxicity”. Moreover, the “efficacy in alcoholism when given during abstinence” value in the series with alcoholics (naltrexone given during abstinence) was “tended to be worse than placebo”. In addition, the “efficacy in alcoholism when paired with alcohol drinking” value in the series with alcoholics (naltrexone paired with drinking (extinction method)) is “effective”. The “maximum days per week (naltrexone and drinking) reported by complying patients” value in the series with alcoholics (three-year follow-up, mean ± SEM) is reported as 1.5±0.4 days per week. Further, the “treatment of binge eating versus placebo” value in series [4] is “not significantly better than placebo”. Moreover, the alcohol drinking result in the series on rats is “significantly lowered”. Besides, the preference for saccharin result in the series with humans [5] is “reduces”.
